# PubChem BioAssay (NCI)
#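 Each compound was tested at five concentrations against cells in 96-well plates for 48 hours. TGI marks complete inhibition of growth.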
# Assays:
# Assay in all cases: DTP human tumour cell line panel, 48 h
# [1] = test system: 786-0 renal
# [2] = test system: A498 renal
# [3] = test system: A549 NSCLC
# [4] = test system: ACHN renal
# [5] = test system: BT-549 breast
# [6] = test system: CAKI-1 renal
# [7] = test system: CCRF-CEM leukemia
# [8] = test system: COLO 205 colon
# [9] = test system: EKVX NSCLC
# [10] = test system: HCC-2998 colon
# [11] = test system: HCT-116 colon
# [12] = test system: HL-60(TB) leukemia
# [13] = test system: HOP-62 NSCLC
# [14] = test system: HT29 colon
# [15] = test system: IGROV1 ovarian
# [16] = test system: K-562 leukemia
# [17] = test system: KM12 colon
# [18] = test system: LOX IMVI melanoma
# [19] = test system: MALME-3M melanoma
# [20] = test system: MCF7 breast
# [21] = test system: MDA-MB-435
# [22] = test system: MOLT-4 leukemia
# [23] = test system: NCI-H226 lung
# [24] = test system: NCI-H23 lung
# [25] = test system: NCI-H460 lung
# [26] = test system: NCI/ADR-RES ovarian
# [27] = test system: OVCAR-3 ovarian
# [28] = test system: OVCAR-4 ovarian
# [29] = test system: OVCAR-5 ovarian
# [30] = test system: OVCAR-8 ovarian
# [31] = test system: RPMI-8226 leukemia
# [32] = test system: RXF 393 renal
# [33] = test system: SF-268 CNS
# [34] = test system: SF-295 CNS
# [35] = test system: SF-539 CNS
# [36] = test system: SK-MEL-28 melanoma
# [37] = test system: SK-MEL-5 melanoma
# [38] = test system: SK-OV-3 ovarian
# [39] = test system: SNB-19 CNS
# [40] = test system: SNB-75 CNS
# [41] = test system: SW-620 colon
# [42] = test system: T-47D breast
# [43] = test system: TK-10 renal
# [44] = test system: U251 CNS
# [45] = test system: UACC-257 melanoma
# [46] = test system: UACC-62 melanoma
# [47] = test system: UO-31 renal
smiles,measurement,setting,value
Cc1nc(Nc2ccc(Cl)c(Cl)c2)sc1C(=O)/C=C/c1ccc2c(c1)OCO2,TGI,[1],38.4 µM
same,TGI,[2],47.8 µM
same,TGI,[3],48.5 µM
same,TGI,[4],45.1 µM
same,TGI,[5],46.1 µM
same,TGI,[6],32.6 µM
same,TGI,[7],> 100 µM
same,TGI,[8],60.6 µM
same,TGI,[9],87.2 µM
same,TGI,[10],88.1 µM
same,TGI,[11],49.4 µM
same,TGI,[12],43.4 µM
same,TGI,[13],36.5 µM
same,TGI,[14],> 100 µM
same,TGI,[15],> 100 µM
same,TGI,[16],89.9 µM
same,TGI,[17],50 µM
same,TGI,[18],35.3 µM
same,TGI,[19],> 100 µM
same,TGI,[20],> 100 µM
same,TGI,[21],48.4 µM
same,TGI,[22],44.1 µM
same,TGI,[23],62 µM
same,TGI,[24],49.5 µM
same,TGI,[25],> 100 µM
same,TGI,[26],> 100 µM
same,TGI,[27],30 µM
same,TGI,[28],33.9 µM
same,TGI,[29],> 100 µM
same,TGI,[30],49.6 µM
same,TGI,[31],45.9 µM
same,TGI,[32],29.3 µM
same,TGI,[33],64 µM
same,TGI,[34],45.6 µM
same,TGI,[35],61.7 µM
same,TGI,[36],86.9 µM
same,TGI,[37],97.4 µM
same,TGI,[38],33.6 µM
same,TGI,[39],51.9 µM
same,TGI,[40],31.4 µM
same,TGI,[41],> 100 µM
same,TGI,[42],> 100 µM
same,TGI,[43],53.6 µM
same,TGI,[44],49 µM
same,TGI,[45],> 100 µM
same,TGI,[46],> 100 µM
same,TGI,[47],33.7 µM
